The compounds below were run on HIV-1 Ba-L (assay: HIV-1 MAGI assay, Ba-L (CCR5 / M-tropic)). Conditions: Human immunodeficiency virus 1, BAL, MAGI; value stated for both tropisms; read-out: IC50 against M tropic HIV in MAGI assay.
Assay type: cell-based
Experimental: (§1) Bayesian statistical models were constructed using known CXCR4 and CCR5 active compounds from literature, and these models were used to virtually screen 5 million compounds in the Aldrich Marketplace Select library. The screen yielded 14 compounds of interest that were then tested for their anti-HIV activity for both tropisms in MAGI assay. Two compounds (FIG. 1, compounds 1 and 2) were active against both T and M tropic forms of HIV with IC50 values of ˜20 μM. These initial hits were followed-up by a second round of virtual screening based on similarity and sub-structure searching. Another 24 compounds were purchased from the same database and tested. […] This compound was then subjected to a series of biological evaluations to determine activity profile and confirm mechanism of action.

Clc1ccc(Cc2nc(CN3CCN(Cc4ccccn4)CC3)cs2)cc1 [Compound 1] was tested. Which IC50 did it give?
The IC50 was ~20 µM.

With c1ccc(Cc2c[nH]nc2C2CCN(Cc3ccccn3)CC2)cc1 [Compound 2] as the compound, how does the IC50 read?
The IC50 was ~20 µM.

Same assay, conditions: Human immunodeficiency virus 1, BAL, Table 3; read-out: MAGI Assay IC50 CCR5

With Fc1cc(CN2CCC(c3[nH]ncc3Cc3ccccc3)CC2)ccn1 as the compound, how does the IC50 read?
Its IC50 is 10 µM.

CS(=O)(=O)c1cc(CN2CCC(c3[nH]ncc3Cc3ccccc3)CC2)ccn1 was tested. Which IC50 did it give?
Its IC50 is 0.6 µM.

Which IC50 does the source give for c1ccc(Cc2cn[nH]c2C2CCN(Cc3ccncn3)CC2)cc1 here?
The IC50 was 20 µM.

N#Cc1ccc(CN2CCC(c3[nH]ncc3Cc3ccccc3)CC2)nc1 was tested. Which IC50 did it give?
The IC50 was 43 µM.

For CN(C)c1ccc(CN2CCC(c3[nH]ncc3Cc3ccccc3)CC2)cc1, which IC50 is on record?
Its IC50 is 5 µM.

For COc1cccc(CN2CCC(c3[nH]ncc3Cc3ccccc3)CC2)c1Cl, which IC50 is on record?
Its IC50 is 1 µM.

With c1ccc(Cc2cn[nH]c2C2CCN(Cc3ccnc4ccccc34)CC2)cc1 as the compound, how does the IC50 read?
The IC50 was 0.8 µM.

Which IC50 does the source give for Clc1nccc(CN2CCC(c3[nH]ncc3Cc3ccccc3)CC2)c1Cl here?
The IC50 was 0.8 µM.

For [O-][n+]1ccc(CN2CCC(c3[nH]ncc3Cc3ccccc3)CC2)cc1, which IC50 is on record?
Its IC50 is > 100 µM.

How did the IC50 turn out when Clc1cnccc1CN1CCC(c2[nH]ncc2Cc2ccccc2)CC1 [drawing 40] was run?
Its IC50 is 0.2 µM.

Clc1cc(CN2CCC(c3[nH]ncc3Cc3ccccc3)CC2)ccn1 [drawing 41] was tested. Which IC50 did it give?
Its IC50 is 0.3 µM.

How did the IC50 turn out when c1ccc(Cc2cn[nH]c2C2CCN(Cc3cccc4ccccc34)CC2)cc1 [drawing 49] was run?
The IC50 was 8 µM.

With c1ccc(Cc2cn[nH]c2C2CCN(Cc3ccc4ccccc4c3)CC2)cc1 [drawing 50] as the compound, how does the IC50 read?
The IC50 was 4 µM.

Same assay, conditions: Human immunodeficiency virus 1, BAL; @ 1 uM; read-out: MAGI Assay % inhib CCR5

Cc1n[nH]c(C2CCN(Cc3ccncc3Cl)CC2)c1Cc1ccccc1 was tested. Which inhibition at 1 µM did it give?
Its inhibition at 1 µM is 92%.

These compounds were tested against T1, HIV-1 reverse transcriptase (Human immunodeficiency virus type 1 group M subtype B, UniProt P03366) (assay: biochemical). Conditions: @ 100 uM; read-out: % Activity of RT.
Assay type: biochemical

With Cc1n[nH]c(C2CCN(Cc3ccncc3Cl)CC2)c1Cc1ccccc1 as the compound, how does the activity at 100 µM read?
The activity at 100 µM was 4%.

Same assay, conditions: Table 3

For CN(C)c1ccc(CN2CCC(c3[nH]ncc3Cc3ccccc3)CC2)cc1, which “RT IC50” value is on record?
The value was “inactive”.

Same assay, conditions: Table 3; read-out: RT IC50

For Fc1cc(CN2CCC(c3[nH]ncc3Cc3ccccc3)CC2)ccn1, which IC50 is on record?
Its IC50 is 10 µM.

With CS(=O)(=O)c1cc(CN2CCC(c3[nH]ncc3Cc3ccccc3)CC2)ccn1 as the compound, how does the IC50 read?
The IC50 was 4 µM.

With c1ccc(Cc2cn[nH]c2C2CCN(Cc3ccncn3)CC2)cc1 as the compound, how does the IC50 read?
Its IC50 is 146 µM.

For N#Cc1ccc(CN2CCC(c3[nH]ncc3Cc3ccccc3)CC2)nc1, which IC50 is on record?
Its IC50 is 211 µM.

With COc1cccc(CN2CCC(c3[nH]ncc3Cc3ccccc3)CC2)c1Cl as the compound, how does the IC50 read?
The IC50 was 1.5 µM.

c1ccc(Cc2cn[nH]c2C2CCN(Cc3ccnc4ccccc34)CC2)cc1 was tested. Which IC50 did it give?
Its IC50 is 3 µM.

How did the IC50 turn out when Clc1nccc(CN2CCC(c3[nH]ncc3Cc3ccccc3)CC2)c1Cl was run?
Its IC50 is 4 µM.

For [O-][n+]1ccc(CN2CCC(c3[nH]ncc3Cc3ccccc3)CC2)cc1, which IC50 is on record?
Its IC50 is > 100 µM.

How did the IC50 turn out when Clc1cnccc1CN1CCC(c2[nH]ncc2Cc2ccccc2)CC1 [drawing 40] was run?
The IC50 was 10 µM.

With Clc1cc(CN2CCC(c3[nH]ncc3Cc3ccccc3)CC2)ccn1 [drawing 41] as the compound, how does the IC50 read?
The IC50 was 10 µM.

Which IC50 does the source give for c1ccc(Cc2cn[nH]c2C2CCN(Cc3cccc4ccccc34)CC2)cc1 [drawing 49] here?
Its IC50 is 20 µM.

With c1ccc(Cc2cn[nH]c2C2CCN(Cc3ccc4ccccc4c3)CC2)cc1 [drawing 50] as the compound, how does the IC50 read?
Its IC50 is 23 µM.

What follows are compounds tested on m7CCR5 (assay: STD-NMR binding epitope study, m7CCR5). Conditions: 1 mM compound, 10 μM m7CCR5.
Experimental: (§2) Saturation Transfer Difference Spectroscopy (STD) was used to study the interactions between m7CCR5, HIV-1 reverse transcriptase, CXCR4, and compound 2 disclosed herein. Brandt et al., J Biol Chem. 2002, 277(19):17291-9. […] An on-resonance spectrum is recorded where m7CCR5 is selectively saturated giving rise to compound signals intensities.
(§3) The difference of off-resonance from the on-resonance spectrum results in the STD spectrum indicating proton that are in close contact to the protein surface. Non-binding protons cancelled out. The signal intensities can be quantified indicating the relative distance of the proton. Normalizing the measured STD intensities against the most intense can be expressed as percentages.
STD binding epitope studies of compound 2 interacting with m7CCR5 (isolated, bacterially-expressed CCR5 construct) is shown in FIG. 2B. […] 100 mM HEPES, 150 mM NaCl, pH=7) in the absence of protein. c) STD NMR spectrum of 1 mM compound 2 in the presence of 10 μM m7CCR5 resolubilized in DDM/DOPC bicelle buffer. d) STDD spectrum of compound 2 binding to m7CCR5 obtained by subtracting (b) from (c). e) STDD binding epitope of compound 2 complexed to m7CCR5 obtained by integrating signals from (d).

c1ccc(Cc2c[nH]nc2C2CCN(Cc3ccccn3)CC2)cc1 [Compound 2] was tested. Which “interaction with m7CCR5 (STD NMR)” value did it give?
Its value is “interacts”.

What follows are compounds tested on HIV-1 IIIB (assay: HIV-1 MAGI assay, IIIB (CXCR4 / T-tropic)). Conditions: Human immunodeficiency virus 1, IIIB, MAGI, Table 3; read-out: MAGI Assay IC50 CXCR4.
Assay type: cell-based
Experimental: as §1

How did the IC50 turn out when Fc1cc(CN2CCC(c3[nH]ncc3Cc3ccccc3)CC2)ccn1 was run?
The IC50 was > 10 µM.

Which IC50 does the source give for CS(=O)(=O)c1cc(CN2CCC(c3[nH]ncc3Cc3ccccc3)CC2)ccn1 here?
The IC50 was 0.4 µM.

How did the IC50 turn out when c1ccc(Cc2cn[nH]c2C2CCN(Cc3ccncn3)CC2)cc1 was run?
Its IC50 is > 100 µM.

N#Cc1ccc(CN2CCC(c3[nH]ncc3Cc3ccccc3)CC2)nc1 was tested. Which IC50 did it give?
Its IC50 is > 100 µM.

With COc1cccc(CN2CCC(c3[nH]ncc3Cc3ccccc3)CC2)c1Cl as the compound, how does the IC50 read?
The IC50 was 2 µM.

With c1ccc(Cc2cn[nH]c2C2CCN(Cc3ccnc4ccccc34)CC2)cc1 as the compound, how does the IC50 read?
Its IC50 is 1 µM.

Which IC50 does the source give for Clc1nccc(CN2CCC(c3[nH]ncc3Cc3ccccc3)CC2)c1Cl here?
The IC50 was 1.5 µM.

[O-][n+]1ccc(CN2CCC(c3[nH]ncc3Cc3ccccc3)CC2)cc1 was tested. Which IC50 did it give?
The IC50 was > 100 µM.

Which IC50 does the source give for Clc1cnccc1CN1CCC(c2[nH]ncc2Cc2ccccc2)CC1 [drawing 40] here?
The IC50 was 0.1 µM.

With Clc1cc(CN2CCC(c3[nH]ncc3Cc3ccccc3)CC2)ccn1 [drawing 41] as the compound, how does the IC50 read?
The IC50 was 0.2 µM.

c1ccc(Cc2cn[nH]c2C2CCN(Cc3cccc4ccccc34)CC2)cc1 [drawing 49] was tested. Which IC50 did it give?
The IC50 was 7 µM.

Which IC50 does the source give for c1ccc(Cc2cn[nH]c2C2CCN(Cc3ccc4ccccc4c3)CC2)cc1 [drawing 50] here?
Its IC50 is 4 µM.

Same assay, conditions: Human immunodeficiency virus 1, IIIB, MAGI; @ 1 uM; read-out: MAGI Assay % inhib CXCR4

Which inhibition at 1 µM does the source give for Cc1n[nH]c(C2CCN(Cc3ccncc3Cl)CC2)c1Cc1ccccc1 here?
Its inhibition at 1 µM is 79%.

Same assay, conditions: Human immunodeficiency virus 1, IIIB, MAGI; value stated for both tropisms; read-out: IC50 against T tropic HIV in MAGI assay

For Clc1ccc(Cc2nc(CN3CCN(Cc4ccccn4)CC3)cs2)cc1 [Compound 1], which IC50 is on record?
Its IC50 is ~20 µM.

How did the IC50 turn out when c1ccc(Cc2c[nH]nc2C2CCN(Cc3ccccn3)CC2)cc1 [Compound 2] was run?
The IC50 was ~20 µM.

Same assay, conditions: Table 3

How did the “MAGI Assay IC50 CXCR4” value turn out when CN(C)c1ccc(CN2CCC(c3[nH]ncc3Cc3ccccc3)CC2)cc1 was run?
Its value is “inactive”.

Each compound was assayed against CXCR4 (Homo sapiens, UniProt P61073) (assay: STD-NMR binding epitope study, CXCR4 in CHO membrane extracts). Conditions: 1 mM compound, 30% CXCR4-expressing CHO membrane extracts.
Sequence of CXCR4 (P61073 whole entry): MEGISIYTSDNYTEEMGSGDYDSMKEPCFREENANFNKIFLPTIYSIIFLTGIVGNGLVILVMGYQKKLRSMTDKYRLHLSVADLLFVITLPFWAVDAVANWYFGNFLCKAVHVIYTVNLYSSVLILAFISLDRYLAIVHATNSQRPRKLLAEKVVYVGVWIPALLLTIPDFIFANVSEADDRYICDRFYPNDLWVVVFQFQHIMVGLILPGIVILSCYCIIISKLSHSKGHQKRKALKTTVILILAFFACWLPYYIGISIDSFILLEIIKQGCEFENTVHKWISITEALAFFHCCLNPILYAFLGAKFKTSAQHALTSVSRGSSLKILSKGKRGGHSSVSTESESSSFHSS
Experimental: as §2, §3
STD binding epitope studes of compound 2 interacting with CXCR4 obtained from Chinese Hamster Ovary (CHO) membrane extracts as shown in FIG. 2C.

For c1ccc(Cc2c[nH]nc2C2CCN(Cc3ccccn3)CC2)cc1 [Compound 2], which “interaction with CXCR4 (STD NMR)” value is on record?
The value was “interacts”.

Each compound was assayed against T1, HIV-1 reverse transcriptase (assay: STD-NMR binding epitope study, HIV-1 reverse transcriptase). Conditions: 1 mM compound, 30 ng/ml HIV reverse transcriptase.
Experimental: as §2, §3
Spectra were collected on a 600 MHz Varian equipped with a triple-resonance cryoprobe, and STD spectra were collected with 512 scans at an on-resonance frequency of +0.5 ppm. Panel a) is a ^1H NMR spectrum of compound 2 in 100% deuterated phosphate buffered saline (PBS, pH=7.4). b) STD NMR spectrum of compound 2 in PBS in the absence of protein. c) STD NMR spectrum of 1 mM compound 2 in the presence of 30 ng/ml HIV reverse transcriptase (CalBioChem). d) Binding epitope of compound 2 binding to HIV-RT obtained by integrating the signals from (c).

How did the “interaction with HIV-1 reverse transcriptase (STD NMR)” value turn out when c1ccc(Cc2c[nH]nc2C2CCN(Cc3ccccn3)CC2)cc1 [Compound 2] was run?
The value was “interacts”.

— patent US10450293B2, “Chemokine CXCR4 and CCR5 receptor modulators and uses related thereto” (Emory University, priority 2014, dated 2019)
